Activity calls are given as the source filed them. The calls are words filed in the database; no cut-off is given here.
Legend:
[1] = system: THP-1; assay: Cytotoxicity against human THP1 cells after 48 hrs assessed as morphological changes in the dark condition; type: functional, cell-based
[2] = system: THP-1; assay: Cytotoxicity against human THP1 cells after 48 hrs assessed morphological changes compound exposed to light for 20 mins before treatment; type: functional, cell-based

Structure (SMILES) | Activity [1] | Activity [2]
Cc1cc(O)c2c(=O)c3c(O)cc(O)c4c5c(O)cc(O)c6c(=O)c7c(O)cc(C)cc7c(c65)c(c2c1)c34 | Active | Active
Cc1cc(O)c2c(c1)Cc1cc(O)cc(O)c1C2=O | Active | Active
Cc1cc(O)c2c(=O)c3c(O)cc(O)c4c5c(O)cc(O)c6c(=O)c7c(O)cc(C)c8c1c2c(c34)c(c78)c65 | Active | Active
Cc1cc(O)c2c(c1)C(=O)c1cc(O)cc(O)c1C2=O | Active | Active

Reference: ChEMBL document CHEMBL1154270, “Light-independent metabolomics of endophytic Thielavia subthermophila provides insight into microbial hypericin biosynthesis” (J Nat Prod, 2009)
